Reference: patent publication US20050101595A1, “N-containing cycloalkyl-substituted amino-thiazole derivatives and pharmaceutical compositions for inhibiting cell proliferation and methods for their use” (PFIZER INC., priority 2003, published 2005)
Structures can show the parent of a compound that is named as a salt. Where two headings read alike, the source gives them in different places.

Assays:
CDK2/Cyclin A = CDK2/Cyclin A (Homo sapiens, UniProt P24941); test: Inhibition of CDK2/Cyclin A Retinoblastoma Kinase Activity; assay type: biochemical; details: for Ki: apparent Ki, CDK2/proteolyzed cyclin A, Rb fragment substrate, 25 μM ATP; for CDK2 % Inhibition At 0.03 μM: Table 2
Outline: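 CDK2 (10 or 19 nM), insect-cell expressed, gel-filtration purified with truncated cyclin A; Rb fragment substrate; 25 μM ATP; 10 mM HEPES pH 7.4, 10 mM MgCl2; 30° C, 60 or 75 min; EDTA stop; phosphocellulose/nitrocellulose capture, phosphorimager. % inhibition vs DMSO control, no-enzyme background subtracted.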

[1] = molecular target: human CDK4 and genetically truncated (1-264) cyclin D3 (Homo sapiens, UniProt P11802); test: Inhibition of CDK4/Cyclin D Retinoblastoma Kinase Activity; assay type: biochemical; details: for Ki: apparent Ki, CDK4/truncated cyclin D3, Rb fragment substrate, 25 μM ATP
Chain of human CDK4 and genetically truncated (1-264) cyclin D3 (P11802 whole entry, the tested form may be a part): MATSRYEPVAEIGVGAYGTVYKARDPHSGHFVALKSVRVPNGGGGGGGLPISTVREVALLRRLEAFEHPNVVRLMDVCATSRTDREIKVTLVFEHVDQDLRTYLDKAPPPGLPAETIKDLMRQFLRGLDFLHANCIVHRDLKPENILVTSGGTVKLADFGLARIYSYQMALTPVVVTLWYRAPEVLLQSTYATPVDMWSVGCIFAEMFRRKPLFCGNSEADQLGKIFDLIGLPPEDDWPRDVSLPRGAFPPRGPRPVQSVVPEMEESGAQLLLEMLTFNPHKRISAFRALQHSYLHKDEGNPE
Chain of human CDK4 and genetically truncated (1-264) cyclin D3 (P30281 1-264 partner): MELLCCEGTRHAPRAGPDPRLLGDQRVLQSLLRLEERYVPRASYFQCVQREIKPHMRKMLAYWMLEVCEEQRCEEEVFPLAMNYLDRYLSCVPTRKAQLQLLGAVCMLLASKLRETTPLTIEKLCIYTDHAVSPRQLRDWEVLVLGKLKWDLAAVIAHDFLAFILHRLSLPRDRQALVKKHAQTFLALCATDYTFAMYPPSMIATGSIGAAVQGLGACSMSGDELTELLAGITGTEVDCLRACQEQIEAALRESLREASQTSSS
Outline: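 The enzyme complex (5 nM), expressed in co-infected insect cells, was incubated with recombinant Rb fragment, 25 μM radiolabelled ATP and 2% DMSO at 30 °C. Reactions were stopped with EDTA after 20 minutes, or 60 minutes for tight-binding inhibitors. Apparent Ki values came from competitive inhibition fits.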

HCT-116 cell line = test: Inhibition of cell growth, tetrazolium salt (MTT) assay; assay type: cell-based; details: for IC50: Homo sapiens, HCT-116, 120 h, MTT, three to five days, read-out: HCT-116 IC50; for HCT-116 % Inhibition at 0.25 μM: 0.25 μM compound
Outline: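 HCT-116 cells in McCoy's 5A medium received compound 4 h after plating (0.5% v/v DMSO) and were incubated three to five days at 37° C, 5% CO2. MTT (0.2 mg/mL final) then added for 4 h; DMSO-solubilized formazan read at 540 nm against 0.5% DMSO-treated controls.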

[2] = 0.1 μM compound, HCT-116, Table 3

| SMILES | Ki (CDK2/Cyclin A) | Ki [1] | IC50 (HCT-116 cell line; first HCT-116 column (c4)) | IC50 (HCT-116 cell line; second HCT-116 column (c5)) | CDK2 % Inhibition at 0.03 μM (CDK2/Cyclin A; at 0.03 μM) | CDK4 % Inhibition at 0.03 μM ([1]; at 0.03 μM) | HCT-116 % Inhibition at 0.1 μM (HCT-116 cell line; HCT-116 cells, at 0.1 μM) | HCT-116 5 Inhibition at 0.25 μM (HCT-116 cell line; HCT-116 cells) | other results |
| --- | --- | --- | --- | --- | --- | --- | --- | --- | --- |
| COc1ccccc1C(=O)N1CCC(Nc2nc(N)c(C(=O)c3c(F)cccc3F)s2)CC1 [Example R114] | – | – | – | – | 60% | 65% | 0% | 42 | – |
| Nc1nc(NC2CCN(S(=O)(=O)c3ccc(C4=NCCO4)cc3)CC2)sc1C(=O)c1c(F)cccc1F [Example J5, 1-(4-Amino-2-{1-[4-(4,5-dihydro-oxazol-2-yl)-benzenesulfonyl]-piperidin-4-ylamino}-thiazol-5-yl)-1-(2,6-difluoro-phenyl)-methanone] | 2.8 nM | 3.9 nM | 210 nM | 480 nM | – | – | – | – | – |
| Nc1nc(NC2CCN(S(=O)(=O)c3ccc(OCCn4ccnc4)nc3)CC2)sc1C(=O)c1c(F)cccc1F [Example H9, 1-(4-Amino-2-{1-[6-(2-imidazol-1-yl-ethoxy)-pyridine-3-sulfonyl]-piperidin-4-ylamino}-thiazol-5-yl)-1-(2,6-difluoro-phenyl)-methanone Hydrochloride] | < 0.5 nM | 1.2 nM | 480 nM | 3100 nM | – | – | – | – | – |
| N=C(N)c1ccc(S(=O)(=O)N2CCC(Nc3nc(N)c(C(=O)c4c(F)cccc4F)s3)CC2)cc1 [Example J3, 4-(4-{4-Amino-5-[1-(2,6-difluoro-phenyl)-methanoyl]-thiazol-2-ylamino}-piperidine-1-sulfonyl)-benzamidine] | < 1 nM | 0.25 nM | > 5000 nM | > 5000 nM | – | – | – | – | – |
| CN(C)CCN(C)c1ccc(C(=O)N2CCC(Nc3nc(N)c(C(=O)c4c(F)cccc4F)s3)CC2)cn1 [Example G32, 1-{4-Amino-2-[1-(1-{6-[(2-dimethylamino-ethyl)-methyl-amino]-pyridin-3-yl}-methanoyl)-piperidin-4-ylamino]-thiazol-5-yl}-1-(2,6-difluoro-phenyl)-methanone Trifluoroacetic Acid Salt] | 60 nM | 42 nM | 4700 nM | > 5000 nM | – | – | – | – | – |
| Cc1noc(C)c1S(=O)(=O)N1CCC(Nc2nc(N)c(C(=O)c3c(F)cccc3F)s2)CC1 [Example P51] | – | – | – | – | – | – | – | – | CDK2 % Inhibition at 0.03 μM (CDK2/Cyclin A; 0.03 μM compound, Table 3): 3%; CDK4 % Inhibition at 0.03 μM ([1]; 0.03 μM compound, Table 3): 27%; HCT-116 % Inhibition at 0.1 μM (HCT-116 cell line; [2]): 18%; HCT-116 % Inhibition at 0.25 μM (HCT-116 cell line; HCT-116, Table 3): 21% |
| CN(C)CCN(C)c1ccc(S(=O)(=O)N2CCC(Nc3nc(N)c(C(=O)c4c(F)cccc4F)s3)CC2)cn1 [Example G1, Trifluoroacetic Acid Salt] | 1.4 nM | 0.64 nM | 120 nM | > 500 nM | – | – | – | – | – |
| Nc1nc(NC2CCN(S(=O)(=O)c3ccc(F)cc3Cl)CC2)sc1C(=O)c1c(F)cccc1F [Example P55] | – | – | – | – | – | – | – | – | CDK2 % Inhibition at 0.03 μM (CDK2/Cyclin A; 0.03 μM compound, Table 3): 43%; CDK4 % Inhibition at 0.03 μM ([1]; 0.03 μM compound, Table 3): 52%; HCT-116 % Inhibition at 0.1 μM (HCT-116 cell line; [2]): 20%; HCT-116 % Inhibition at 0.25 μM (HCT-116 cell line; HCT-116, Table 3): 25% |
| CCOC(=O)CC[C@H](NC(=O)N1CCC(Nc2nc(N)c(C(=O)c3c(F)cccc3F)s2)CC1)C(=O)OCC [Example O80] | – | – | – | – | – | – | – | – | CDK2 % Inhibition At 0.03 μM (CDK2/Cyclin A; 0.03 μM compound): 23%; CDK4 % Inhibition at 0.03 μM ([1]; 0.03 μM compound, Table 2): 15%; HCT-116 % Inhibition at 0.25 μM (HCT-116 cell line; HCT-116, Table 2): 46% |
| CCOC(=O)C(CC(C)C)NC(=O)N1CCC(Nc2nc(N)c(C(=O)c3c(F)cccc3F)s2)CC1 (stereo not drawn) [Example O69] | – | – | – | – | – | – | – | – | CDK2 % Inhibition At 0.03 μM (CDK2/Cyclin A; 0.03 μM compound): 29%; CDK4 % Inhibition at 0.03 μM ([1]; 0.03 μM compound, Table 2): 5%; HCT-116 % Inhibition at 0.25 μM (HCT-116 cell line; HCT-116, Table 2): 51% |
| Nc1nc(NC2CCN(C(=O)c3cccc(O)c3)CC2)sc1C(=O)c1c(F)cccc1F [Example R138] | – | – | – | – | 67% | 70% | 0% | 40 | – |
| Cc1ccc2cc(S(=O)(=O)N3CCC(Nc4nc(N)c(C(=O)c5c(F)cccc5F)s4)CC3)ccc2c1 [Example P88] | – | – | – | – | – | – | – | – | CDK2 % Inhibition at 0.03 μM (CDK2/Cyclin A; 0.03 μM compound, Table 3): 44%; CDK4 % Inhibition at 0.03 μM ([1]; 0.03 μM compound, Table 3): 49%; HCT-116 % Inhibition at 0.1 μM (HCT-116 cell line; [2]): 7%; HCT-116 % Inhibition at 0.25 μM (HCT-116 cell line; HCT-116, Table 3): 34% |

Further lines, with some results ahead:

| Ki (CDK2/Cyclin A) | Ki [1] | IC50 (HCT-116 cell line; first HCT-116 column (c4)) | IC50 (HCT-116 cell line; second HCT-116 column (c5)) | CDK2 % Inhibition at 0.03 μM (CDK2/Cyclin A; at 0.03 μM) | CDK4 % Inhibition at 0.03 μM ([1]; at 0.03 μM) | SMILES | HCT-116 % Inhibition at 0.1 μM (HCT-116 cell line; HCT-116 cells, at 0.1 μM) | HCT-116 5 Inhibition at 0.25 μM (HCT-116 cell line; HCT-116 cells) | other results |
| --- | --- | --- | --- | --- | --- | --- | --- | --- | --- |
| 0.93 nM | 0.35 nM | 890 nM | 4000 nM | – | – | Nc1nc(NC2CCN(S(=O)(=O)c3ccc(CCN4CCC(O)C4)nc3)CC2)sc1C(=O)c1c(F)cccc1F (stereo not drawn) [Example N7, [4-Amino-2-(1-{6-[2-(3-hydroxy-pyrrolidin-1-yl)-ethyl]-pyridine-3-sulfonyl}-piperidin-4-ylamino)-thiazol-5-yl]-(2,6-difluoro-phenyl)-methanone Hydrochloride Salt.] | – | – | – |
| – | – | – | – | −7% | 20% | Cc1c(S(=O)(=O)c2ccc(Cl)cc2)csc1C(=O)N1CCC(Nc2nc(N)c(C(=O)c3c(F)cccc3F)s2)CC1 [Example R47] | 8% | 45 | – |
| 2.7 nM | 4.4 nM | > 500 nM | > 500 nM | – | – | Nc1nc(NC2CCN(S(=O)(=O)CCCSc3ccccn3)CC2)sc1C(=O)c1c(F)cccc1F [Example K21, 1-(4-Amino-2-{1-[3-(pyridin-2-ylsulfanyl)-propane-1-sulfonyl]-piperidin-4-ylamino}-thiazol-5-yl)-1-(2,6-difluoro-phenyl)-methanone] | – | – | – |
| – | – | – | – | 66% | 73% | Nc1nc(NC2CCN(C(=O)c3cc4ccccc4s3)CC2)sc1C(=O)c1c(F)cccc1F [Example R17] | 0% | 45 | – |
| 3.9 nM | 2.5 nM | 390 nM | 1300 nM | – | – | Nc1nc(NC2CCN(S(=O)(=O)CCCN3CCSCC3)CC2)sc1C(=O)c1c(F)cccc1F [Example K13, 1-(4-Amino-2-{1-[3-(thiomorpholin-4-yl)propane-1-sulfonyl]-piperidin-4-ylamino}-thiazol-5-yl)-1-(2,6-difluoro-phenyl)-methanone.] | – | – | – |
| – | – | – | – | −5% | −4% | CC1(C(=O)N2CCC(Nc3nc(N)c(C(=O)c4c(F)cccc4F)s3)CC2)CCCCC1 [Example R99] | 5% | 49 | – |
| – | – | – | – | 17% | 28% | Nc1nc(NC2CCN(C(=O)OC3CCCC3)CC2)sc1C(=O)c1c(F)cccc1F [Example R87] | 0% | 36 | – |
| < 1 nM | 1.8 nM | 1900 nM | 4700 nM | – | – | Nc1nc(NC2CCN(S(=O)(=O)c3ccc(Cc4ncc[nH]4)nc3)CC2)sc1C(=O)c1c(F)cccc1F [Example I4, 1-(4-Amino-2-{1-[6-(1H-imidazol-2-ylmethyl)-pyridine-3-sulfonyl]-piperidin-4-ylamino}-thiazol-5-yl)-1-(2,6-difluoro-phenyl)-methanone Hydrochloride] | – | – | – |
| – | – | – | – | 23% | 43% | Nc1nc(NC2CCN(C(=O)CCOc3ccccc3)CC2)sc1C(=O)c1c(F)cccc1F [Example R173] | 0% | 43 | – |
| 7.9 nM | 5.6 nM | 280 nM | < 5000 nM | – | – | COC(=O)c1sccc1S(=O)(=O)N1CCC(Nc2nc(N)c(C(=O)c3c(F)cccc3F)s2)CC1 [Example F10, 3-{4-[4-Amino-5-(2,6-difluoro-benzoyl)-thiazol-2-ylamino]-piperidine-1-sulfonyl}-thiophene-2-carboxylic acid methyl ester] | – | – | – |
| 0.84 nM | 1.2 nM | 80 nM | 230 nM | – | – | COc1ccc(S(=O)(=O)N2CCC(Nc3nc(N)c(C(=O)c4c(F)cccc4F)s3)CC2)cn1 [Example F22, 1-{4-Amino-2-[1-(6-methoxy-pyridine-3-sulfonyl)-piperidin4-ylamino]-thiazol-5-yl}-1-(2,6-difluoro-phenyl)-methanone] | – | – | – |
